Four compounds from publication PMC11510591, “In Vitro Evaluation of Pharmacokinetic Properties of Selected Dual COX-2 and 5-LOX Inhibitors” (Pharmaceuticals, 2024) can be followed below.

For data set [1] the following is noted: BMC, Brij 35 mobile phase pH 5.5, 36.5 °C, C18 column. As to the method: BMC was performed using polyoxyethylene lauryl ether (Brij 35) as the most frequently used surfactant in this method. All other parameters (pH, temperature, and salinity) were set to achieve physiological conditions. The retention of compounds is mostly influenced by their lipophilicity and their interactions with both the modified stationary phase and the micelles in the mobile phase. Therefore, the elution behavior is determined by the combined effects of micelles, the stationary phase, and water. An important factor for this method is finding the optimal balance between organic solvent and aqueous phase.
BMC was performed on an Agilent 1200 Series (Agilent Technologies, Santa Clara, CA, USA) supplied with a binary pump, manual injector (20 µL), and DAD detector (190–950 nm) using a C18 column (ZORBAX Extend-C18 Analytical 4.6 × 150 mm; 5 µm, Agilent Technologies, Santa Clara, CA, USA). Mobile phase was a combination of aqueous phase (40 mmol/L solution of Brij 35 in 7 mmol/L Na2HPO4) and acetonitrile (70:30, v/v), and the mobile phase pH was adjusted to 5.5 using o-phosphoric acid. […] Retention factors (k) were calculated according to Equation (1). Column dead time (t0) was the retention time of DMSO at 220 nm, while tR was the retention time of a tested compound. k = (tR − t0)/t0(1)

The nature of data set [2]: PAMPA test (hexadecane membrane), passive gastrointestinal absorption. Format: in vitro ADME. The settings on record: donor pH 5.5, acceptor pH 7.4, 5 h, room temperature; for Papp at 5 h, 0.05 mM: PAMPA, read-out: Pe (effective passive permeability coefficient). As to the method:
The PAMPA test uses a 96-well plate coated with an impregnated filter material, forming an artificial membrane that separates donor and acceptor compartments. Egg lecithin in dodecane is commonly used to simulate membrane lipids, while hexadecane is effective for mimicking gastrointestinal membranes. […] Therefore, hexadecane dissolved in hexane was chosen in this study.
The phosphate buffer solution was prepared by dissolving 0.5292 g of NaH2PO4 × H2O and 0.0234 g of Na2HPO4 in purified water (200 mL). The phosphate buffer was divided into two portions, and the pH was adjusted to pH 5.5 and pH 7.4 using o-phosphoric acid. The donor solutions were prepared by diluting the stock solutions (5 mM DMSO solutions) with the buffer pH 5.5 to obtain the final concentration of 0.05 mM (the DMSO concentration in the donor solutions was 1%), while the acceptor solution was prepared as a 1% DMSO solution in the buffer pH 7.4. The use of DMSO as a cosolvent in PAMPA is necessary in cases of low-soluble compounds. It is usually used in concentrations up to 5% [25, 55, 56, 57].
The PAMPA test was performed according to the literature procedure using a 96-well microtiter polycarbonate filter plate (Merck Millipore, Carrigtwohill, Ireland) that was impregnated with 15 µL of a hexadecane/hexane (5:95, v/v) solution [52]. Donor solutions (300 µL per well) were transferred into each well of the donor plate. Acceptor solution was transferred into each well (300 µL per well) of the acceptor plate (MSSACCEPTOR, Millipore, Burlington, MA, USA) and covered by the donor plate to create a PAMPA sandwich. The system was incubated at room temperature for 5 h at a vibratory mixer. After incubation, the PAMPA sandwich was dissociated, and concentrations of all tested compounds in each well, as well as in the starting solutions, were determined using the HPLC method (Section 3.3.1).
The concentrations of tested compounds in the starting solutions, as well as in the donor and acceptor sections after incubation, were determined by the HPLC method on the Dionex Ultimate 3000 (Thermo Fisher Scientific, Waltham, MA, USA) equipped with a quaternary pump, autosampler, and DAD detector using a ZORBAX Eclipse XDB-C18 4.6 × 150 mm, 5 µm column (Agilent Technologies, Santa Clara, CA, USA).
R represents the retention, which is defined as the fraction of the tested compound retained in the PAMPA membrane (filters and plate materials), CD(t) is the concentration of a tested compound in a donor compartment after incubation time t, CA(t) is the concentration of a tested compound in an acceptor compartment after incubation time t, while CD(0) represents the concentration of a tested compound in a donor compartment at the beginning of the incubation (starting solution).

In data set [3] the test system is CD-1 mouse liver microsomes. The settings on record: pH 7.4; for Peak Area, t0: 0 min; for Peak Area, t: 30 min. On the procedure: Microsomal stability (and thus susceptibility to metabolism) was tested using microsomes derived from CD-1 mouse liver. According to the applied protocol, both phases of metabolism were activated by the addition of cofactors NADPH and UDP-GlcUA. […] Stock solutions of all tested compounds (5 mM DMSO solutions) were diluted with 0.1 M potassium phosphate buffer pH 7.4 to obtain 0.1 mM solutions, which were further incubated according to the protocol. In order to activate both the 1st and 2nd phases of metabolism, NADPH and UDP-GlcUA were used as cofactors. Tested compounds were incubated at 37 °C for 30 min, and the incubation was quenched immediately after the addition of cofactors (t0) and after the defined incubation time (t) by mixing 100 µL of corresponding incubation mixtures with 200 µL of cold acetonitrile. All compounds were tested in duplicates, and their concentrations were determined using the HPLC-MS/MS method (Section 3.7.1).
The HPLC-MS/MS analysis was performed on the UHPLC chromatograph ACELLA (Thermo Fisher Scientific Inc., Madison, WI, USA), coupled to a triple quadrupole mass spectrometer TSQ Quantum Access MAX (Thermo Fisher Scientific Inc., Madison, WI, USA) with a heated electrospray ionization (HESI) interface. The column used was Zorbax Extend C18 (150 mm × 4.6 mm, 5 µm; Agilent Technologies), which was thermostated at 25 °C. The mobile phase consisted of acetonitrile and 0.1% formic acid (60:40, v/v), with a flow rate of 500 µL/min. The injection volume was 10 µL.

The target of data set [4] is T1, human serum albumin (HSA) (Homo sapiens, UniProt P02768).
T1 construct: purchased Sigma-Aldrich
T1 sequence (P02768 25-609): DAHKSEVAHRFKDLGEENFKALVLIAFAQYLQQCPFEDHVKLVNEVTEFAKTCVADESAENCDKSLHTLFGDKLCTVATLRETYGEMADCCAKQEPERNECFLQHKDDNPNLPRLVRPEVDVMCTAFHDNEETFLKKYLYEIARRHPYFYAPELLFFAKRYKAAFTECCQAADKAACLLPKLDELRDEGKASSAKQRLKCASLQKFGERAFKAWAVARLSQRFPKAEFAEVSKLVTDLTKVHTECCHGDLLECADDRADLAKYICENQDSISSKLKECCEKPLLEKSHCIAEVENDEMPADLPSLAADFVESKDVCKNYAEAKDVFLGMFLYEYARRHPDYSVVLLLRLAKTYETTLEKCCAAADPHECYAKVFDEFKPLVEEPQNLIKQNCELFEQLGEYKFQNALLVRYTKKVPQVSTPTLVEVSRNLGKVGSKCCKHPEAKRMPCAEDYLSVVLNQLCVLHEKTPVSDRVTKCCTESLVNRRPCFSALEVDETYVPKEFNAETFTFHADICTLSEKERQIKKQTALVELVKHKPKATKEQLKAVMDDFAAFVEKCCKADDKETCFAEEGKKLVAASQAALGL
Type of data set: binding. Conditions: CHIRALPAK HSA column, ammonium acetate buffer pH 7.0/acetonitrile 85:15, 25 °C. On the procedure: Recently, interactions of many newly synthesized structurally diverse compounds with HSA were successfully studied using this technique. The degree of binding of the tested compounds to HSA was evaluated based on their retention behavior on the stationary phase modified with HSA. The logarithmic values of retention factors (logk) were used to evaluate indirectly and compare the drug–HSA interaction.
HPAC analysis was performed on an Agilent 1200 Series chromatograph (Agilent Technologies, Santa Clara, CA, USA). […] The mobile phase consisted of ammonium acetate buffer (pH 7.0; 0.01 M) and acetonitrile (85:15, v/v). The flow rate was 0.6 mL/min, the temperature was set to 25 °C, and the detection of tested compounds was carried out at 283 nm. Tested compounds were dissolved in DMSO (at a concentration of 1 mg/mL), further diluted with the mobile phase to a final concentration of 0.05 mg/mL, and analyzed in triplicate. The HPAC conditions were selected not only with the aim of achieving satisfactory retention characteristics of all synthesized compounds but also taking into account recommendations of a column manufacturer. Retention factors were calculated using Equation (1), where t0 (column dead time) was the retention time of DMSO at 220 nm.

Data set [5] concerns the target T1, human serum albumin (HSA). In words: Differential pulse voltammetry (DPV), interaction with HSA. Type of data set: binding. Conditions: compound 0.05 mmol/L, PBS pH 7.4, HSA 0.05–10 μmol/L. As to the method: The electrochemical oxidation of the tested compounds at a concentration of 0.05 mmol/L in PBS buffer pH 7.4 was investigated by differential pulse voltammetry (DPV). […] For all tested compounds, a preliminary study of the interaction with HSA was performed at a concentration of 0.05 mmol/L and different HSA concentrations (0.05–10 μmol/L) using DPV. […] It has been reported that the shift in the potential of an electroactive ligand is a suitable criterion to determine the mode of the macromolecule–ligand interaction. In this context, a positive shift in potential is an indication of hydrophobic interaction of investigated compounds with HSA [34]. The decrease in peak current could be due to the formation of a non-electroactive supramolecular compound by the drug–protein interaction, which reduces the concentration of free drug.
The voltammetric measurements were carried out with the µAutolab analyzer (EcoChemie, Utrecht, The Netherlands). A three-electrode system with a GCE working electrode, an Ag/AgCl reference electrode, and a Pt-auxiliary electrode was used. Before each experiment, the GCE was manually polished with an aqueous slurry of Al2O3 powder (particle size of 0.05 μm) on a smooth polishing pad, sonicated in deionized water, and then treated in absolute ethanol. Phosphate buffer saline (PBS) pH 7.4 was used as the supporting electrolyte. The experiments were carried out with deaerated PBS buffer. A stock solution of HSA in PBS at a concentration of 0.1 mmol/L was used. […] The interaction between tested compounds and HSA was examined in PBS solution, using solutions of tested compounds in a concentration of 0.05 mmol/L and HSA solution with a concentration in the range of 0.05–10 μmol/L.
The percentage of free compound (Equation (4)) was calculated from the ratio of the current intensity (IINT) for a given compound concentration (0.05 mmol/L) in the presence of albumin to the signal obtained at the same compound concentration only in the presence of the supporting electrolyte (PBS buffer) (IC).

Like-named read-outs stand apart in the source and are kept apart here.

`O=C(O)Cc1ccccc1Nc1c(Cl)cccc1Cl` [Diclofenac, diclofenac]: the entries for the “Retention factors (k)” value in data set [1] and in data set [1] (listed as diclofenac) were 8.25 ± 0.00 and 8.25, respectively. For the same compound, the Papp at 5 h, 0.05 mM in data set [2] was above 400 ×10⁻⁶ cm/s. Further, the “–logPe” value in data set [2] was below 3.40; in data set [2] (listed as diclofenac), at most 3.46. Moreover, the “Peak Area, t0” value in data set [3] is 126.2 ± 2.8 ×10^3. Further, the “Peak Area, t” value in data set [3] is 99.7 ± 5.3 ×10^3.
Consider `CC(C(=O)O)c1ccc(-c2ccccc2)c(F)c1` (stereo not shown) [Flurbiprofen, flurbiprofen], for which, in data set [1], the “Retention factors (k)” value was 7.14 ± 0.02. In data set [2], the Papp at 5 h, 0.05 mM was above 400 ×10⁻⁶ cm/s. Besides, the “–logPe” value in data set [2] is listed as below 3.40; in data set [2] (listed as flurbiprofen) it was at most 3.46. Further, the “Retention Factors (logk)” value in data set [4] was 11.03 ± 0.02; in data set [4] (listed as flurbiprofen), 11.03. In data set [5], the “% Bound Drug” value is “Electrochemically inactive”. For the same compound, in data set [5], the “ΔE, DPV peak potential shift after interaction with HSA” value is “Electrochemically inactive”.
For the compound `COc1ccc2c(c1)c(CC(=O)O)c(C)n2C(=O)c1ccc(Cl)cc1` [Indomethacin, indomethacin, reference compound], the “Retention factors (k)” value in data set [1] turned out to be 10.20 ± 0.03. Besides, in data set [2], the Papp at 5 h, 0.05 mM was found to be 386 ×10⁻⁶ cm/s and the “–logPe” value was found to be 3.41 ± 0.05. The “–logPe” value in data set [2] (listed as indomethacin) is reported as at most 3.46. For the same compound, in data set [3], the “Peak Area, t0” value is 241.9 ± 2.5 ×10^3 and the “Peak Area, t” value was 206.9 ± 9.0 ×10^3.
In the case of `CC(C)Cc1ccc(C(C)C(=O)O)cc1` (stereo not shown) [Ibuprofen, ibuprofen], in data set [1], the “Retention factors (k)” value was found to be 13.36 ± 0.00. In data set [2], the Papp at 5 h, 0.05 mM is above 400 ×10⁻⁶ cm/s and the “–logPe” value is below 3.40. Moreover, the “–logPe” value in data set [2] (listed as ibuprofen) is listed as at most 3.46.
